Laboratory results published in patent publication US20100173278A1, “MICROCAPSULES CONTAINING MAMMALS' SPERMATOZOIDS, INSEMINATION DOSE CONTAINING SAME AND METHOD FOR OBTAINING SAME” (Cooperative Bretonne D'Insemination Artificielle Porcine, priority 2007, published 2010).
Read-outs that look alike come from different tables or passages of the source.

Test system: semen
Assay: Biocompatibility with semen (non-spermicidal; mobility and viability of the spermatozoa)
Assay type: cell-based, swine
Source text: A summary of the tests conducted is given in the table at the end of the description.

Substance | Bio-compatibility | effect on the mobility and viability of the spermatozoa | spermicidal role with respect to semen | Bio-compatibility (surfactant concentration 0.5%, matrix Suppocire DM) | Bio-compatibility (surfactant concentration 1%, matrix Gelucire 43/01) | Bio-compatibility (surfactant concentration 1%, matrix Suppocire DM)
Tween 85 | Yes | – | – | – | – | –
sorbitan monolaurate [Span 20] | – | lack of any harmful effect | non-spermicidal | Yes | Yes | Yes
